The source of these data is patent US20150182745A1, “IONTOPHORETIC DEVICE FOR DOSAGING OF AN ACTIVE INGREDIENT” (NOVAGENT OY, priority 2012, published 2015).

SMILES strings stand for the structures.

The conditions of data set [1]: in vivo; cited from earlier work.
The conditions of data set [2]: swine. An excerpt:
The invention is further described more in detail by the following examples. In the examples a device according to FIG. 2 was used. The electrodes are made of a carbon fiber textile, onto which a hydrophobic micro-porous layer of teflon is fitted. As model agent was used tacrine, which is a cationic drug. The chamber section 13a, the electrolyte space, comprised a 0.15 M aqueous solution of sodium sulphate and the chamber section 13b, the space comprising the active agent, comprised a 0.15 M aqueous solution of sodium chloride, which corresponds to a physiological salt solution. […] The membrane 15 was either a synthetic membrane (UC 101T) or swine skin. In the experiments were used Smopex®-ion exchanging fibres, made by Smoptech (Johnson Matthey).

Regarding `Nc1c2c(nc3ccccc13)CCCC2` [tacrine], in data set [1], the “clearance CL” value is 150 dm^3h^−1 and the therapeutic window was 5-30 μg dm^−3. In data set [2], the passive flow came to 1.99 μg cm^−2h^−1 and the “passive flow (slope)” value is listed as 1.81 μg cm^−2h^−1.
